Measurements from patent US12391671B2, “Allosteric EGFR inhibitors and methods of use thereof” (Dana-Farber Cancer Institute, Inc., priority 2019, dated 2025).
Where a name gives a salt, the structure may show the parent alone. Read-outs that look alike come from different tables or passages of the source.

Assays:
EGFR L858R/T790M = EGFR L858R/T790M (Homo sapiens (Human), UniProt P00533, L858R/T790M); assay: HTRF-based EGFR biochemical assay (L858R/T790M); conditions: 100 μM ATP, enzyme 0.02 nM
EGFR L858R/T790M, sequence (P00533 25-1210 T790M/L858R): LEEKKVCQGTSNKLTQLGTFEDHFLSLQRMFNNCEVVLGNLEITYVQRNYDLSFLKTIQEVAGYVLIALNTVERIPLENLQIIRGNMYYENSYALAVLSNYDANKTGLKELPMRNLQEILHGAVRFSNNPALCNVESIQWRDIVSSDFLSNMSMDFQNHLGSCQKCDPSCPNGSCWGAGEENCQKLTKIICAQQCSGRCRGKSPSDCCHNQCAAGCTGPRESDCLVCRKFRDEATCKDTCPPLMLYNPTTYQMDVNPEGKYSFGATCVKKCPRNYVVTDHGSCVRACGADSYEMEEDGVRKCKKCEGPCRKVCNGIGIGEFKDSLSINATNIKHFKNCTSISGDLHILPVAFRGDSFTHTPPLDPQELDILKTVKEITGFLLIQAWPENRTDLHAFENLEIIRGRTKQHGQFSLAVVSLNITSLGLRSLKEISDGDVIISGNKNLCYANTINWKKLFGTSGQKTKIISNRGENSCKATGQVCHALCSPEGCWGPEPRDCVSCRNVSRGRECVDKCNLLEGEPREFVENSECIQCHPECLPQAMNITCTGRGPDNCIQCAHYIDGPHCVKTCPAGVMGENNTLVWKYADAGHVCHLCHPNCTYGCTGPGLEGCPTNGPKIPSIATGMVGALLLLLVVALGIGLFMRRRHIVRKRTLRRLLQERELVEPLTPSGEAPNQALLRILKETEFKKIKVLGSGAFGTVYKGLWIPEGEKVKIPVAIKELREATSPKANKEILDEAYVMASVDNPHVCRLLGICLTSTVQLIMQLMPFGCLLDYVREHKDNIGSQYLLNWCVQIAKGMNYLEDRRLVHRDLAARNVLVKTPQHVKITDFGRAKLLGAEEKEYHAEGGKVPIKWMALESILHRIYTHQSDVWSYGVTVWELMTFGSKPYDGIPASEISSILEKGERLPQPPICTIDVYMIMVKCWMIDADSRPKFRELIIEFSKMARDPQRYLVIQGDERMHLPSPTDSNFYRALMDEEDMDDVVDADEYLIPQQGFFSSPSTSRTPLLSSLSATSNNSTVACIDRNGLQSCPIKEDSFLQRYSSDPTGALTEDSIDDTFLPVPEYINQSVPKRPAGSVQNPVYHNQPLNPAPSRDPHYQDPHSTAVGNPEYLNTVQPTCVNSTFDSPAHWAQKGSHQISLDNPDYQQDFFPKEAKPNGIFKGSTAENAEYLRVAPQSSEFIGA
Method: (§1) Example 25: HTRF-Based EGFR Biochemical Assays
(§2) EGFR biochemical activity measurements were carried out using the homogeneous time-resolved fluorescence (HTRF) assay (Cisbio), inhibitors and DMSO normalizations were first dispensed to empty black low-volume 384-well plates (Corning) with 0300 digital liquid dispenser (HP). All reactions were carried out at room temperature and solutions were added to plates with a Multidrop Combi Reagent Dispenser (ThermoFisher). The reaction mixture (10 μL final volume) contained 1 μM tyrosine kinase peptide-biotin substrate and mutant EGFR in a reaction buffer (50 mM HEPES pH 7.0, 5 mM MgCl2, 1 mM MnCl2, 0.01% BSA, 2 mM TCEP, 0.1 mM NaVO4). Enzyme concentrations were adjusted to accommodate varying kinase activities (L858R 0.1 nM, L858R/T790M 0.02 nM). Enzyme reaction solution (2× concentrations, 5 μL) was added to 384-well plates containing compounds and incubated for 30 mins. Enzyme reactions were initiated with the addition of 5 μL of ATP to a final concentration of 100 μM and reacted for 20 mins. Reactions were quenched with the addition of 10 μL of phospho-tyrosine antibody-Europium(III) cryptate (1-to-180 volume ratio) and Streptavidin-XL665 (46.7 nM) in EDTA-containing detection buffer, then incubated at room temperature for 1 hour, and read with a PHERAstar plate reader (excitation=337 nm, emission=620 nm and 665 nm).

EGFR L858R = EGFR L858R (Homo sapiens (Human), UniProt P00533, L858R); assay: HTRF-based EGFR biochemical assay (L858R); conditions: 100 μM ATP, enzyme 0.1 nM
EGFR L858R, sequence (P00533 25-1210 L858R): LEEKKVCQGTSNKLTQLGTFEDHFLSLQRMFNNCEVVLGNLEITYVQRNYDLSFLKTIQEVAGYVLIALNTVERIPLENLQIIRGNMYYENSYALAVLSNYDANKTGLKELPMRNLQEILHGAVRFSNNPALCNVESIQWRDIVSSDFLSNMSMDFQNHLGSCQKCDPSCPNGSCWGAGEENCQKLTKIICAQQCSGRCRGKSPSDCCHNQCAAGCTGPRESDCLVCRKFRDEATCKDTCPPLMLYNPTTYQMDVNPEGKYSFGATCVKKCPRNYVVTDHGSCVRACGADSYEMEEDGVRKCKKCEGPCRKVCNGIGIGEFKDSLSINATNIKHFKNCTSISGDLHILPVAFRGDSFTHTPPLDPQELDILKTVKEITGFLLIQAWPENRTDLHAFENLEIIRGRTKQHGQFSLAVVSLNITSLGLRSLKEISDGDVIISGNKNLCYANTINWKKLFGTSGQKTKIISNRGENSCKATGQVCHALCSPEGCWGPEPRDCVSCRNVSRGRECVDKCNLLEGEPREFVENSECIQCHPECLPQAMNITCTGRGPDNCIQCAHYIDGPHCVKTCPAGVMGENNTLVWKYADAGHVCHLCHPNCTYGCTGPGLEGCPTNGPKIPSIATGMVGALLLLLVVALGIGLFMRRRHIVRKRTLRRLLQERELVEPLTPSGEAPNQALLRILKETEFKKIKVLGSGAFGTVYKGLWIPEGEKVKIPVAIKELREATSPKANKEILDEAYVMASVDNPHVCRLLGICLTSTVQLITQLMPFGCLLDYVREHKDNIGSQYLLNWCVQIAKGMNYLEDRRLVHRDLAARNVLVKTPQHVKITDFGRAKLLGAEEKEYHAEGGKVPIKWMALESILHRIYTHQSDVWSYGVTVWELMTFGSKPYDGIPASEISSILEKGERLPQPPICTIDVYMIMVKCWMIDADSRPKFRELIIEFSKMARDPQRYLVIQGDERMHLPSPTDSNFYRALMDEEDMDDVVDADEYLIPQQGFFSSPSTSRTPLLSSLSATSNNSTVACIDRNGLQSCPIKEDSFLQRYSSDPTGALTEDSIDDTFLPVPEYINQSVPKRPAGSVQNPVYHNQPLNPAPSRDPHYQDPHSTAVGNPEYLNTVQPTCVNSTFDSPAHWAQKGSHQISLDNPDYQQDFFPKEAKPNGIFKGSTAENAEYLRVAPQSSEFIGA
Method: as §1, §2

[1] = system: EGFR mutant L858R/T790M Ba/F3 cells; assay: Ba/F3 cell proliferation model (Cell Titer Glo), EGFR L858R/T790M; format: cell-based, murine; conditions: 72 hours
Description: Example 26: Ba/F3 Cell Proliferation Models
The EGFR mutant L858R and L858R/T790M Ba/F3 cells have been previously described (Zhou, W., et al. Nature 462, 2009, 1070-1074). All cell lines were maintained in RPM 1640 (Cellgro; Mediatech Inc., Herndon. CA) supplemented with 10% FBS, 100 units/mL penicillin, 100 units/mL streptomycin. The EGFR I941R mutation was introduced via site directed mutagenesis using the Quick Change Site-Directed Mutagenesis kit (Stratagene; La Jolla, CA) according to the manufacturer's instructions. All constructs were confirmed by DNA sequencing. The constructs were shuttled into the retroviral vector JP1540 using the Cre-recombination system (Agilent Technologies, Santa Clara, CA). Ba/F3 cells were then infected with retrovirus per standard protocols, as described previously (Zhou, et al, Nature 2009). Stable clones were obtained by selection in puromycin (2 μg/ml).
Growth and inhibition of growth was assessed by the Cell Titer Glo® assay (Promega, Madison, WI) and was performed according to the manufacturer's instructions. The Cell Titer Glo® assay is a luminescence-based method used to determine the number of viable cells based on quantitation of the ATP present, which is directly proportional to the amount of metabolically active cells present. Ba/F3 cells of different EGFR genotypes were exposed to compounds as a single agent or in combination with 1 μg/mL cetuximab for 72 hours and the number of cells used per experiment was determined empirically as has been previously established (Zhou, et al., Nature 2009). All experimental points were set up in triplicates in 384-well plates and all experiments were repeated at least three times. […] The curves were fitted using a non-linear regression model with a sigmoidal dose response.

[2] = Mus musculus, BaF3, single agent, read-out: Cell IC50 BaF3 EGFR L858R/T790M
[3] = in combination with 1 μg/mL cetuximab, read-out: Cell IC50 BaF3 EGFR L858R/T790M (+cetux.)

| IC50 (EGFR L858R/T790M) [µM] | IC50 (EGFR L858R) [µM] | IC50 [1, 2] [µM] | IC50 [1, 3] [µM] | Compound |
| --- | --- | --- | --- | --- |
| 0.002 | 0.015 | 1.1 | 0.02 | CN1CCC(c2ccc(-c3ccc4c(c3)C(=O)N(C(c3nc5cnccc5[nH]3)c3cc(F)ccc3O)C4)cc2)CC1 (stereo not drawn) [Compound 015, 2-[(5-Fluoro-2-hydroxy-phenyl)-(1H-imidazo[4,5-c]pyridin-2-yl)methyl]-6-[4-(1-methyl-4-piperidyl)phenyl]isoindolin-1-one;hydrochloride] |
| 0.0007 | 0.003 | 0.59 | 0.01 | CN1CCC(F)(c2ccc(-c3ccc4c(c3)C(=O)N(C(c3nc5ccccc5[nH]3)c3cc(F)ccc3O)C4)cc2)CC1 (stereo not drawn) [Compound 016, 2-[1H-Benzimidazol-2-yl-(5-fluoro-2-hydroxy-phenyl)methyl]-6-[4-(4-fluoro-1-methyl-4-piperidyl)phenyl]isoindolin-1-one; hydrochloride] |
| 0.0004 | 0.001 | 0.26 | 0.006 | CN1CCC(c2ccc(-c3ccc4c(c3)C(=O)N(C(c3nc5ccccc5[nH]3)c3cc(F)ccc3O)C4)cc2F)CC1 (stereo not drawn) [Compound 017, 2-[1H-Benzimidazol-2-yl-(5-fluoro-2-hydroxy-phenyl)methyl]-6-[3-fluoro-4-(1-methyl-4-piperidyl)phenyl]isoindolin-1-one; hydrochloride] |
| 0.005 | 0.009 | 3.49 | 0.02 | CN1CCC(c2ccc(-c3ccc4c(c3)C(=O)N(C(c3nc5cncnc5[nH]3)c3cc(F)ccc3O)C4)cc2)CC1 (stereo not drawn) [Compound 018, 2-[(5-Fluoro-2-hydroxy-phenyl)-(9H-purin-8-yl)methyl]-6-[4-(1-methyl-4-piperidyl)phenyl]isoindoiin-1-one; hydrochloride] |
| 0.001 | 0.004 | 1.87 | 0.01 | CN1CCC(c2ccc(-c3ccc4c(c3)C(=O)N(C(c3nc5nccnc5[nH]3)c3cc(F)ccc3O)C4)cc2)CC1 (stereo not drawn) [Compound 019, 2-[(5-Fluoro-2-hydroxy-phenyl)-(1H-imidazo[4,5-b]pyrazin-2-yl)methyl]-6-[4-(1-methyl-4-piperidyl)phenyl]isoindolin-1-one; hydrochloride] |
| 0.011 | 0.15 | 3.05 | 0.18 | CN1CCC(c2ccc(-c3ccc4c(c3)C(=O)N(C(c3cccc(F)c3)c3nc5cccnc5[nH]3)C4)cc2)CC1 (stereo not drawn) [Compound 025] |
| 0.007 | 0.026 | 2.28 | 0.08 | CN1CCC(c2ccc(-c3ccc4c(c3)C(=O)N(C(c3cccc(F)c3)c3nc5ccccc5[nH]3)C4)cc2)CC1 (stereo not drawn) [Compound 026, 2-[1H-Benzimidazol-2-yl-(3-fluorophenyl)methyl]-6-[4-(1-methyl-4-piperidyl)phenyl]isoindolin-1-one] |
| 0.0003 | 0.002 | 1.36 | 0.03 | CN1CCC(c2ccc(-c3ccc4c(n3)C(=O)N(C(c3nc5ccccc5[nH]3)c3cc(F)ccc3O)C4)cc2)CC1 (stereo not drawn) [Compound 028, 6-[1H-Benzimidazol-2-yl-(5-fluoro-2-hydroxy-phenyl)methyl]-2-[4-(1-methyl-4-piperidyl)phenyl]-5H-pyrrolo[3,4-b]pyridin-7-one] |
| 0.008 | 0.045 | > 10 | 0.37 | CN1CCC(c2ccc(-c3ccc4c(c3)C(=O)N(C(c3nc5cccnc5[nH]3)c3n[nH]c5c3CCC5)C4)cc2)CC1 (stereo not drawn) [Compound 031, 2-[1H-Imidazo[4,5-b]pyridin-2-yl(1,4,5,6-tetrahydrocyclopenta[c]pyrazol-3-yl)methyl]-6-[4-(1-methyl-4-piperidy)phenyl]isoindolin-1-one] |
| 0.006 | 0.024 | 5.23 | 0.34 | CN1CCC(c2ccc(-c3ccc4c(c3)C(=O)N(C(c3nc5ccccc5[nH]3)c3n[nH]c5c3CCC5)C4)cc2)CC1 (stereo not drawn) [Compound 033, 2-[1H-Benzimidazol-2-yl(1,4,5,6-tetrahydrocyclopenta[c]pyrazol-3-yl)methyl]-6-[4-(1-methyl-4-piperidyl)phenyl]isoindolin-1-one] |
| 0.042 | 0.507 | 3.6 | 0.53 | COc1ccc(F)cc1C(c1nc2ccccc2[nH]1)n1cc2ccc(-c3ccc(C4CCN(C)CC4)cc3)c(F)c2n1 (stereo not drawn) [Compound 035, 2-[1H-benzimidazol-2-yl-(5-fluoro-2-methoxy-phenyl)methyl]-7-fluoro-6-[4-(1-methyl-4-piperidyl)phenyl]indazole] |
| 0.0007 | 0.0026 | 0.17 | 0.007 | [2H]C(c1nc2ccccc2[nH]1)(c1cc(F)ccc1O)N1Cc2ccc(-c3ccc(C4CCN(C)CC4)cc3)cc2C1=O (stereo not drawn) [Compound 036, 2-((1H-benzo[d]imidazol-2-yl)(5-fluoro-2-hydroxyphenyl)methyl-d)-6-(4-(1-methylpiperidin-4-yl)phenyl)isoindolin-1-one] |
| 0.0005 | 0.0029 | 0.28 | 0.014 | [2H]C1([2H])c2ccc(-c3ccc(C4CCN(C)CC4)cc3)cc2C(=O)N1C([2H])(c1nc2ccccc2[nH]1)c1cc(F)ccc1O (stereo not drawn) [Compound 039, 2-((1H-Benzo[d]imidazol-2-yl)(5-fluoro-2-hydroxyphenyl)methyl-d)-6-(4-(1-methylpiperidin-4-yl)phenyl)isoindolin-1-one-3,3-d2] |
| 0.002 | 0.007 | 1.57 | 0.01 | CN(C)CCOc1ccc(-c2ccc3c(c2)C(=O)N(C(c2nc4ccccc4[nH]2)c2cc(F)ccc2O)C3)cc1 (stereo not drawn) [Compound 040, 2-[1H-benzimidazol-2-yl-(5-fluoro-2-hydroxy-phenyl)methyl]-6-[4-[2-(dimethyl-amino)ethoxy]phenyl]isoindolin-1-one;hydrochloride] |
| 0.002 | 0.005 | 0.95 | 0.02 | CN(C)CCN(C)c1ccc(-c2ccc3c(c2)C(=O)N(C(c2nc4ccccc4[nH]2)c2cc(F)ccc2O)C3)cc1 (stereo not drawn) [Compound 041, 2-[1H-benzimidazol-2-yl-(5-fluoro-2-hydroxy-phenyl)-methyl]-6-[4-[2-(dimethylamino)-ethyl-methyl-amino]phenyl]-isoindolin-1-one; hydrochloride] |
| 0.013 | 0.031 | 4 | 0.24 | CN1CCC(c2ccc(-c3ccc4c(c3)C(=O)N(C(c3nc5ccccc5[nH]3)c3cccc(F)c3O)C4)cc2)CC1 (stereo not drawn) [Compound 042, 2-[1H-benzimidazol-2-yl-(3-fluoro-2-hydroxy-phenyl)-methyl]-6-[4-(1-methyl-4-piperidyl)phenyl]isoindolin-1-one; dihydrochloride] |
| 0.002 | 0.006 | 1.5 | 0.05 | CN1CCC(c2ccc(-c3ccc4c(c3)C(=O)N(C(c3nc5ccccc5[nH]3)c3cc(Cl)ccc3O)C4)cc2)CC1 (stereo not drawn) [Compound 044, 2-[1H-benzimidazol-2-yl-(5-chloro-2-hydroxy-phenyl)-methyl]-6-[4-(1-methyl-4-piperidyl)phenyl]isoindolin-1-one; hydrochloride] |

| Compound | IC50 (EGFR L858R/T790M) [µM] | IC50 (EGFR L858R) [µM] | IC50 [1, 2] [µM] | IC50 [1, 3] [µM] |
| --- | --- | --- | --- | --- |
| CN1CCC(c2ccc(-c3ccc4c(c3)C(=O)N(C(c3nc5ccccc5[nH]3)c3cc(F)ccc3O)C4)c(F)c2)CC1 (stereo not drawn) [Compound 029, 2-[1H-benzimidazol-2-yl-(5-fluoro-2-hydroxy-phenyl)-methyl]-6-[2-fluoro-4-(1-methyl-4-piperidyl)phenyl]isoindolin-1-one; formic acid] | 0.0006 | 0.002 | 0.76 | 0.02 |
